{
  "source": "ChEMBL document CHEMBL3046924",
  "about": "(Biochemistry, 2004)",
  "key": {"[1]": {"target": "T1, 4-hydroxyphenylpyruvate dioxygenase (Arabidopsis thaliana, UniProt P93836)", "T1 sequence (P93836 whole entry)": "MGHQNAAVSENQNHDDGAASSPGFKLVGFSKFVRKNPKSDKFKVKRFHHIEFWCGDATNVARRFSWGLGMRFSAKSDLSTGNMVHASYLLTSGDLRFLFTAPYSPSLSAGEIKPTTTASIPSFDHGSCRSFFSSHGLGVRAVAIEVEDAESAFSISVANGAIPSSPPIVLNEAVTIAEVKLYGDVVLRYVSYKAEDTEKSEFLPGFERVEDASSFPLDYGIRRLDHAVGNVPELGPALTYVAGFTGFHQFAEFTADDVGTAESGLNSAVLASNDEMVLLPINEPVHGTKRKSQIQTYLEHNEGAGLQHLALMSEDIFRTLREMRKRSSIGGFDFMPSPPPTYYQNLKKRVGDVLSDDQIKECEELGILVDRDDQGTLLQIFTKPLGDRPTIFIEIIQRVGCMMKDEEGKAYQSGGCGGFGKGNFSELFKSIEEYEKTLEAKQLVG", "assay": "Inhibition of Arabidopsis thaliana 4-hydroxyphenylpyruvate dioxygenase assessed as formation of homogentisate by HGA dioxygenase coupling enzyme assay", "conditions": "read-out: I50"}, "[2]": {"target": "4-hydroxyphenylpyruvate dioxygenase (Rattus norvegicus, UniProt P32755)", "sequence (P32755 whole entry)": "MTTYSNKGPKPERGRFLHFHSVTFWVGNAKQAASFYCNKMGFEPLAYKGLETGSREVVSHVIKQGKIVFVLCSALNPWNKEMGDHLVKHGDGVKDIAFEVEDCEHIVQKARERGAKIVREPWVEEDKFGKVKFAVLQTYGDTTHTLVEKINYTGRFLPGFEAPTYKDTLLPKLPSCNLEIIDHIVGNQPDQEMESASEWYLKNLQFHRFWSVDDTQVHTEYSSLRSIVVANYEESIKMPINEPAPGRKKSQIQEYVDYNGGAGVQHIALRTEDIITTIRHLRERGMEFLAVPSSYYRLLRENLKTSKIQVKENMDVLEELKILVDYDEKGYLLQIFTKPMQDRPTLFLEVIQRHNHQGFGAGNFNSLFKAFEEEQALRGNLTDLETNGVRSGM", "assay": "Inhibition of Rattus norvegicus (rat) 4-hydroxyphenylpyruvate dioxygenase assessed as formation of homogentisate by HGA dioxygenase coupling enzyme assay", "conditions": "read-out: I50"}, "[3]": {"target": "4-hydroxyphenylpyruvate dioxygenase (Rattus norvegicus) (UniProt P32755)", "sequence (P32755 whole entry)": "as above", "assay": "Inhibition of Rattus norvegicus (rat) 4-hydroxyphenylpyruvate dioxygenase assessed as formation of homogentisate upto 20 uM by HGA dioxygenase coupling enzyme assay"}},
  "note": "Active and inactive are the calls of the source. The rule behind the calls is not given here.",
  "data": [
    {"smiles": "COc1ccc(-c2c(S(C)(=O)=O)ccc(C(=O)c3cnn(C(C)(C)C)c3O)c2C)cc1", "values": [
      {"measurement": "IC50", "setting": "[1]", "result": 7, "unit": "nM"},
      {"measurement": "IC50", "setting": "[2]", "result": "< 20", "unit": "nM"}
    ]},
    {"smiles": "CC(C)(C)n1nc(-c2ccc(Cl)cc2Cl)c(C(=O)c2ccc(S(C)(=O)=O)cc2Cl)c1O", "values": [
      {"measurement": "inhibition", "setting": "[3]", "result": "inactive"}
    ]}
  ]
}
